Results as given in patent US12612412B2, “Antiviral heterocyclic compounds” (Enanta Pharmaceuticals, Inc., priority 2021, dated 2026).

What follows are compounds tested on genotype A, "Long" strain RSV (assay: RSV-A assay (CPE protection in Hep-2 cells, ATPlite readout)). Conditions: human respiratory syncytial virus, genotype A “Long” strain RSV, MOI 0.1, CPE protection, read-out: Human RSV-A (“Long”).
Assay type: cell-based, Human respiratory syncytial virus (HRSV)
Procedure, shortened: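 Compound effect on RSV-induced CPE: Hep-2 monolayers, MOI 0.1, duplicate 2-fold titrations, 5-day culture in 10% FBS DMEM. Readout is ATP-based luminescence, normalised to virus-only and no-virus controls, giving EC50.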

Structure (SMILES)	EC50
COc1cccc(-n2cc(C(=O)NC[C@](O)(c3cc4c(c(-c5ccc(F)cc5)n3)OC[C@]4(C)C(N)=O)C(F)(F)F)cn2)c1 [Example 449]	> 200 nM
COc1ccc(-n2cc(C(=O)NC[C@](O)(c3cc4c(c(-c5ccc(F)cc5)n3)OC[C@]4(C)C(N)=O)C(F)(F)F)cn2)cc1 [Example 450]	> 200 nM
C[C@]1(C(N)=O)COc2c1cc([C@@](O)(CNC(=O)c1cnn(-c3ccc(F)cc3)c1)C(F)(F)F)nc2-c1ccc(F)cc1 [Example 451]	> 200 nM
Cc1nn(-c2ccccc2)cc1C(=O)NC[C@](O)(c1cc2c(c(-c3ccc(F)cc3)n1)OC[C@]2(C)C(N)=O)C(F)(F)F [Example 452]	< 200 nM
Cc1nn(-c2ccccc2)c(C)c1C(=O)NC[C@](O)(c1cc2c(c(-c3ccc(F)cc3)n1)OC[C@]2(C)C(N)=O)C(F)(F)F [Example 453]	> 200 nM
C[C@]1(C(N)=O)COc2c1cc([C@@](O)(CNC(=O)c1cnn(-c3ccccc3F)c1)C(F)(F)F)nc2-c1ccc(F)cc1 [Example 454]	< 200 nM
C[C@]1(C(N)=O)COc2c1cc([C@@](O)(CNC(=O)c1cnn(-c3ccc(C(F)(F)F)cc3)c1)C(F)(F)F)nc2-c1ccc(F)cc1 [Example 455]	> 200 nM
C[C@]1(C(N)=O)COc2c1cc([C@@](O)(CNC(=O)c1cnn(-c3ccccc3)c1C(F)(F)F)C(F)(F)F)nc2-c1ccc(F)cc1 [Example 456]	> 200 nM
C[C@]1(C(N)=O)COc2c1cc([C@@](O)(CNC(=O)c1cn(-c3ccccc3)nc1C(F)(F)F)C(F)(F)F)nc2-c1ccc(F)cc1 [Example 457]	> 200 nM
Cc1c(C(=O)NC[C@](O)(c2cc3c(c(-c4ccc(F)cc4)n2)OC[C@]3(C)C(N)=O)C(F)(F)F)cnn1-c1ccccc1 [Example 458]	< 200 nM
C[C@]1(C(N)=O)COc2c1cc([C@@](O)(CNC(=O)c1cnn(C3CC3)c1)C(F)(F)F)nc2-c1ccc(F)cc1 [Example 461]	< 200 nM
Cc1nc(C2CC2)sc1C(=O)NC[C@](O)(c1cc2c(c(-c3ccc(F)cc3)n1)OC[C@]2(C)C(N)=O)C(F)(F)F [Example 462]	< 200 nM
CC[C@@]1(C(N)=O)COc2c1cc([C@@](O)(CNC(=O)c1cc(OC)c3nn(C4CC4)cc3c1)C(F)(F)F)nc2-c1ccc(F)cc1 [Example 463]	< 200 nM
CC[C@]1(C(N)=O)COc2c1cc([C@@](O)(CNC(=O)c1cc(OC)c3nn(C4CC4)cc3c1)C(F)(F)F)nc2-c1ccc(F)cc1 [Example 464]	< 200 nM
C[C@]1(C(N)=O)COc2c1cc([C@@](O)(CNC(=O)c1csc(-c3ccccc3)n1)C(F)(F)F)nc2-c1ccc(F)cc1 [Example 482]	> 200 nM
Cc1sc(-c2ccccc2)nc1C(=O)NC[C@](O)(c1cc2c(c(-c3ccc(F)cc3)n1)OC[C@]2(C)C(N)=O)C(F)(F)F [Example 483]	> 200 nM
C[C@]1(C(N)=O)COc2c1cc([C@@](O)(CNC(=O)c1cnc(-c3ccccc3F)s1)C(F)(F)F)nc2-c1ccc(F)cc1 [Example 484]	> 200 nM
Cc1nc(-c2ccccc2F)sc1C(=O)NC[C@](O)(c1cc2c(c(-c3ccc(F)cc3)n1)OC[C@]2(C)C(N)=O)C(F)(F)F [Example 485]	> 200 nM
C[C@]1(C(N)=O)COc2c1cc([C@@](O)(CNC(=O)c1cccc3nc(N)sc13)C(F)(F)F)nc2-c1ccc(F)cc1 [Example 490]	< 200 nM
C[C@]1(C(N)=O)COc2c1cc([C@@](O)(CNC(=O)c1ccn3nc(C4CC4)cc3c1)C1CC1)nc2-c1ccc(F)c(Cl)c1 [Example 492]	< 200 nM
COc1cc(C(=O)NC[C@](O)(c2cc3c(c(-c4ccc(F)cc4Cl)n2)OC[C@]3(C)C(N)=O)C2CC2)cc2cn(C3CC3)nc12 [Example 535]	< 200 nM
COc1cc(C(=O)NC[C@](O)(c2cc3c(c(-c4cnc(C#N)c(Cl)c4)n2)OC[C@]3(C)C(N)=O)C(F)(F)F)cc2cc(Cl)c(C)nc12 [Example 584]	< 200 nM
COc1cc(C(=O)NC[C@](O)(c2cc3c(c(-c4ccc(F)c(Cl)c4)n2)OC[C@]3(C)C(N)=O)C2CC2)cn2cc(C3CC3)nc12 [Example 634]	< 200 nM
